# Measured values from a melting point compilation (Tetko et al.; mined from patent text by program, amines drawn as free bases though some values may be those of a salt).
row,SMILES,melting point [°C]
1,CC(=O)Nc1ccc(-c2cc(-c3nc4ccccc4c(=O)n3-c3ccccc3)sc2N2CCOCC2)cc1,> 275
2,Cc1c(CCc2ccccc2)c(=O)oc2cc(OCC#N)cc(OCC#N)c12,179 to 183
3,O=Cc1ccc(-c2ccccc2)c(Cl)c1,70 to 72
4,FC(F)(F)c1ccc(COc2ccnc(CSc3nc4cscc4[nH]3)c2)cc1,141 to 143
5,O=C1CCN(c2ccc(S(=O)(=O)NCc3ccccc3)cc2)CC1,136 to 140
6,Cc1ccccc1C(=O)Nc1ccc2oc3c(c2c1)CCCC3,209 to 210
7,COC(=O)c1ccc(C#Cc2ccc(OCC(O)CO)c(C34CC5CC(CC(C5)C3)C4)c2)cc1 (stereo not drawn),202 to 203
8,C=CCN1Cc2cnc(C)n2-c2ccc(Cl)cc2C1c1ccccc1F (stereo not drawn),140 to 145
9,Nc1ccc(Sc2c(NCC3CC3)cc(C(=O)O)cc2S(N)(=O)=O)cc1,221 to 223
10,CCCc1c(OCCCOc2ccc(C(=O)OCCCN(C)C)cc2F)ccc(C(C)=O)c1O,55 to 56
11,ClCOc1ccc(Cl)cc1Br,56 to 57.5
12,CCCc1c(OCCCCCc2c(Cl)c(Cl)cc(OC)c2OC)ccc(C(=O)O)c1O,152 to 154
13,CCOC(=O)c1ccnc(OCc2nc(-c3ccco3)oc2C)c1,80 to 81
14,CS(=O)(=O)c1ccc(-n2nc(CCCN3C(=O)c4ccccc4C3=O)cc2-c2ccccc2)cc1,62.4 to 72.2
15,CCCCC[C@H]1CC[C@H](CCc2ccc(O)cc2)CC1,102
16,CC1CC2CC(Cc3ccc(O)cc3)CCC2NC1=O (stereo not drawn),217 to 223
17,CC(C)c1ccccc1Sc1c(O)cc(-c2ccc3c(c2)OCCO3)oc1=O,246 to 248
18,COc1cc2c(cc1-c1cccc(F)n1)-c1c(-c3cncs3)c3c(n1CC2)C(=O)N(C(C)(C)C)CCOC3,232 to 234
19,COc1ccc(C(=O)Oc2ccccc2)cc1Nc1ccccc1,130 to 131
20,O=C1OC[C@@H](c2ccccc2)N[C@H]1Cc1ccccc1,75 to 76
21,Cc1ccc(C(=O)Nc2cccc(C(F)(F)F)c2)cc1/C=C/n1cnc2c(NC3CC3)ncnc21,201
22,COCOc1cccc(COc2cc3c(cc2-c2cc(C=CC(=O)O)ccc2OC)C(C)(C)CCC3(C)C)c1,144 to 146

row,SMILES,melting point [°C]
1,CC(=O)Nc1ccc(OC(=O)c2ccc(COC(=O)OC(C)O[N+](=O)[O-])cc2)cc1 (stereo not drawn),149 to 152
2,Nc1cc(-c2ccc(Cl)cc2)on1,141 to 143
3,c1cn(-c2nc(N3CCOCC3)nc(N3CCOCC3)n2)cn1,248 to 250
4,O=C1NC(=S)SC1=Cc1ccc(OCc2ccccc2-c2ccccc2C(=O)O)cc1,> 225
5,Nc1cccc(C(=O)c2ccc(-c3ccc(C(=O)c4cccc(N)c4)cc3)cc2)c1,217 to 218
6,Nc1ccn(C2COC(CO)C2O)c(=O)n1 (stereo not drawn),235
7,O=C(CC(=O)C1CC1)Nc1ccc(C(F)(F)F)cc1,131 to 132
8,CS(=O)(=O)c1ccc(-n2cnc(Cl)c2-c2ccc(OC(F)(F)F)cc2)cc1,136 to 138
9,Cc1nc2c(N)nc3c(c2n1CC(C)(C)OCCS(C)(=O)=O)CCCC3,226 to 229
10,CC(C)c1ccc(-n2c(CC(=O)O)c(C(=O)O)c3cc(Oc4ccc(Cl)cc4)ccc32)cc1,174 to 180
11,CC(C)(C)OC(=O)C[C@H](NC(=O)CCCC(=O)Nc1ccc(C#N)cc1)C(=O)N[C@@H](Cc1ccccc1)C(=O)OC(C)(C)C,64 to 66
12,Cc1ccc(-c2ncc(-c3cccs3)s2)cc1,85.5 to 86.5
13,COc1ccc2cc3c(=O)c(C#N)c[nH]c3cc2c1,> 265
14,COCCC1=C(C)C(=Cc2ccc(S(N)(=O)=O)cc2)c2ccc(OC)cc21,140
15,COC(=O)[C@@H](C)Oc1ccc(Oc2cnc3ccc(Cl)cc3n2)cc1,80
16,Clc1ccc(CSCc2ccc(Cl)c(Cl)c2)cc1Cl,98 to 99
17,CC(=O)Nc1ccc(C(=O)Nc2ccccc2NC(=O)CN)cc1,215 to 218
18,Fc1ccc2nc(CBr)ccc2c1,90 to 92
19,CC(=O)Nc1ccc(-c2cc(-c3ccc(NC(C)=O)cc3C)cc(-c3ccc(NC(C)=O)cc3C)c2)c(C)c1,180
20,CC(C)OCN1CCN(Cc2ccc(Cl)nc2)C1=NC#N,85 to 87
21,Cc1nn(-c2ccccn2)c(=O)cc1-c1ccc(O)cc1,252 to 254

# The next lines start with the values.
row,melting point [°C],SMILES
1,96 to 98,Cc1cc(C)n(C)c1C(=O)c1ccc(Cl)cc1Cl
2,162 to 164,O=C(O)/C=C/C=C(c1ccccc1C(F)(F)F)c1ccccc1C(F)(F)F
3,97 to 99,COc1ccc2c(c1)C(CC#N)C(=O)CC2 (stereo not drawn)
4,> 300,CC(C)NC1=NS(=O)(=O)c2ccc(S(C)(=O)=O)cc2N1
5,132 to 135,CC(NC(=O)c1ccccc1)c1c[nH]c(-c2ccccc2)n1 (stereo not drawn)
6,43 to 46,CC(C)C(C)OC(=S)c1ccc(N)cc1Cl (stereo not drawn)
7,100,Cc1cccc(N=C(N)N(C)C)c1N1CCOCC1
8,88 to 90,CCCCCCCCCCCCCCCCCC(c1ccc(O)cc1)c1ccc(O)cc1
9,168 to 170,CS(=O)c1n[nH]c2ccc(C(F)(F)F)cc12 (stereo not drawn)
10,> 250,O=C1CCCC2=C1C(c1ccncc1)C1=C(CCS1)N2 (stereo not drawn)
11,78,Cc1nc(-c2ccc(Br)c(C)c2)no1
12,138,COc1ccc2c(c1)C(CCNC(C)=O)CCO2 (stereo not drawn)
13,213,CSCc1sccc1S(=O)(=O)N(C)c1cccc2cc(-c3nccs3)[nH]c12
14,130 to 131,O=C1O[C@H]2C[C@@H]1CC[C@@H]2I
15,133 to 134,O=C(CCC(=O)N1CCC(c2ccc(Cl)cc2)CC1)c1ccc2c(c1)CCN(Cc1ccccc1)CC2
16,209 to 211,O=C(O)c1cccc2[nH]cc(Cc3ccc(OCc4ccc5ccccc5n4)cc3)c12
17,181 to 182,COc1cc(OC)cc(-c2nc[nH]c2-c2ccc(OC)c(O)c2)c1
18,152 to 154,Cc1cc(=O)[nH]c(SCc2ccccc2N(C)C)n1
19,133 to 135,Nc1sc2c(c1C(=O)c1ccsc1)CCCC2
20,104 to 106,CCCP(=O)(CCC)Cc1ccc(N)cc1
21,108 to 111,COc1ccccc1OC(=O)c1cnoc1C
22,208,COC(=O)C1=C(C)Nc2nc(N)nc(N)c2C1c1ccccc1F (stereo not drawn)
23,100,COC(=O)C1Oc2ccc(C)cc2C(C)(c2ccccc2)O1 (stereo not drawn)
24,144 to 147,CC(=O)CC(=O)NCC1(C)CC(NC(=O)CC(C)=O)CC(C)(C)C1 (stereo not drawn)
25,127 to 128,C#CCc1c(Cl)nc(NC=O)nc1Cl
26,276 to 281,COc1cc(CNC(=O)c2nc3scc(COc4ccc(C(=O)O)cc4)c3c(=O)[nH]2)ccc1F
27,116 to 117,COc1ccc(-c2cccc3c2OC(COS(=O)(=O)c2ccc(C)cc2)C3)cc1 (stereo not drawn)
28,84 to 85,O=Cc1cc(Br)c(OCCBr)c(Br)c1
29,112 to 113,N#Cc1ccc(N(Cc2ccc(OCc3ccccc3)cc2)n2cncn2)cc1-c1ccccc1
30,86,CC#CCOc1ccc(S(=O)(=O)CNCC(C(=O)NO)N2CCN(S(C)(=O)=O)CC2)cc1 (stereo not drawn)
